Measured values: patent US20240335431A1, “1-H-PYRROLO[2,3-c]PYRIDINE COMPOUNDS” (Acerta Pharma B.V., priority 2023, published 2024)
Where two headings read alike, the source gives them in different places.

Legend:
Menin protein = Menin protein (Homo sapiens, UniProt O00255, DEL460-519); assay: Menin/MLL fluorescence polarization (FP) assay; type: binding; conditions: Menin 2 nM, cRho110-Ahx-MBM1/MBM2 peptide 1 nM
Procedure: Compounds were tested in a biochemical binding assay using Menin protein at 2 nM (N6his-tev-Menin_4i80, PB-20-1459) and the substrate cRho110-Ahx-MBM1/MBM2 peptide (UbiQ, UbiQ-Q20201030; cRh110-Ahx-[…]-QRVPALLLPPG-NH2) at 1 nM.
384 Low volume black plates (Corning #4514) were used. 5 μL/well compound or 3% DMSO was added at 10-fold serial dilutions in DMSO from 10 μM. 5 μL/well cRho110-Ahx-MBM1/MBM2 peptide or binding buffer (50 mM Tris pH 7.5, 50 mM NaCl, 1 mM TCEP, 0.01% BGG, 0.01% Brij-35) was added to all wells. 5 μL/well Menin protein or binding buffer (50 mM Tris pH 7.5, 50 mM NaCl, 1 mM TCEP, 0.01% BGG, 0.01% Brij-35) was added to all wells. Plates were read on an EnVision plate reader (Perkin Elmer) with excitation at 480 nm and emission at 535 nm P+S, and measured every 5 minutes for 180 minutes.
Data were analyzed in Genedata Screener®. IC50 values were determined by plotting % inhibition versus log compound concentration and using a one site dose response model. Raw data signals were normalized using 1% DMSO no Menin as 100% inhibitor control and 1% DMSO with Menin and no inhibitor as 0% inhibitor control.

HEL cells = assay: Proliferation assay, HEL control cell line (CellTiter-Glo, 7 days); type: cell-based, human
Procedure: (§1) The anti-proliferative effect of compounds was tested in human leukaemia cell lines. The cell lines […] and MV4; 11 each harbor an MLL translocation expressing the MLL fusion proteins MLL-AF9 and MLL-AF4, respectively. Each also express the wildtype protein from the second allele. OCI-AML3 cells carrying the NPM1c gene mutation were also tested.
(§2) MOLM-13 and HEL cells were cultured in RPMI 1640 (Gibco) supplemented with 10% FBS (Gibco) and 1% Pen/Strep (Gibco). MV4; 11 cells were cultured in IMDM (Gibco) supplemented with 10% FBS (Gibco) and 1% Pen/Strep (Gibco). OCI-AML3 cells were cultured in MEMa (Gibco) supplemented with 20% FBS (Gibco) and 1% Pen/Strep (Gibco).
(§3) To assess proliferative effects, 125 MOLM-13 cells, 300 MV4; 11 cells, 75 OCI-AML3 cells, and 200 HEL cells were seeded in 40 μL media per well in 384-well ViewPlates (Perkin Elmer, 6007480). Cell seeding numbers were chosen based on growth curves to ensure linear growth throughout the experiments. Test compounds were added at 3.16-fold serial dilutions in DMSO from […] and DMSO content was normalized to 0.1%. Cells were incubated for 7 days at 37° C. and 5% CO2. A day 0 plate was seeded for each cell line and used as a standard control.
(§4) To measure cell viability, CellTiter-Glo 2.0 (Promega, G9242) luminescent growth indicator was used. 10 μL CellTiter-Glo reagent was added per well. Plates were placed on a plate shaker for 2 minutes in the dark and left to incubate off the shaker for another 8 minutes in the dark, for a total of 10 minutes. Plates were read using an EnVision plate reader (Perkin Elmer) using the Luminescence aperture and a measurement time of 0.1 second.
(§5) Data were analyzed in Genedata Screener®. IC50 values were determined by plotting % inhibition versus log compound concentration and using a one site dose response model. Raw data signals were normalized using 0.1% DMSO media only as background control, 0.1% DMSO with cells no compound as 100% viability (maximum signal), and day 0 0.1% DM with cells no compound as 0% viability (minimum signal).

[1] = Human hepatocyte intrinsic clearance assay; type: in vitro ADME; conditions: human hepatocytes
Procedure: Human hepatocytes (LiverPool™ 10-Donor Human hepatocytes (Mixed Gender, PEG-free, Product No. S01205, 5 million cells per vial) were obtained from BioreclamationIVT. DMSO was sourced from Solarbio S&T Co Ltd. Leibovitz's L-15 Medium, Williams' Medium E, GlutaMAX™-1 (100×), HEPES, DPBS (10×) and Human Recombinant Insulin Solution were purchased from Gibco. Isotonic Percoll Solution was purchased from GE Healthcare. Fetal Bovine Serum (FBS) was purchased from Corning.
10 mM dexamethasone stock solution was prepared by dissolving 3.9 mg dexamethasone in 1 mL of DMSO. An Isotonic Percoll Solution was prepared by dilution of Percoll with DPBS (10×). 15 mL of Isotonic Percoll Solution (90% Percoll/10% DPBS) was added to 31.25 mL William's E medium containing 500 mL of GlutaMAX™-1 (100×), 750 mL of 1M HEPES, 2.5 mL of 5% FBS, 50 mL of 4 mg/mL Human Recombinant Insulin Solution and 5 mL of the 10 mM dexamethasone stock.
2 mL of 10 mM DMSO stock solutions of test compound were added to 198 mL acetonitrile to produce 100 mmol/L concentration.
The human hepatocyte vial was thawed at 37° C. in a waterbath. Once thawed, contents were poured into a 50 mL conical tube and centrifuged at 100 g for 10 minutes. The thawing medium was poured out and 4 mL L-15 medium was added. The tube was gently shaken to resuspend the hepatocytes and cells were counted with an appropriate cell counter. 247.5 mL of the hepatocyte suspension was transferred into each well of the plate and pre-warmed at 600 rpm and 50° C. to enable the temperature to rise to 37° C.
2.5 mL of the […] test compound solution was added to initiate the reaction (final concentration […]) and incubated at 37° C. with shaking at 900 rpm. At 0.5, 5, 15, 30, 45, 60, 80, 100 and 120 minutes, 20 mL was taken into a quenching solution of acetonitrile containing internal standards. The mix was vortexed at 800 rpm for 2 minutes followed by centrifugation for 20 minutes at 4000 rpm at 4° C. 40 mL of supernatant was transferred into a 96 well analysis plate containing 160 mL of water in each well. The analysis plate was shaken at 100 rpm for 2 minutes prior to analysis by LC-MS/MS.
(§6) Peak areas were determined from extracted ion chromatograms. Percent parent remaining was calculated from peak area of test compound. The slope value, k, was determined by linear regression of the natural logarithm of percent parent remaining versus incubation time.
The in vitro intrinsic clearance (in vitro CLint in mL/min/10^6 cells) was determined from the slope value using the following equation: […]
where V is the incubation volume (0.25 mL) and N is the number of hepatocytes per well (0.25×10^6 cells).

[2] = Human liver microsomes (HLMs) intrinsic clearance assay; type: in vitro ADME
Procedure: Human liver microsomes (HLMs) were obtained from Corning (UltraPool 150 donors) at a concentration of 20 mg/mL protein. HLMs were stored at −80° C. until use and prior to use, thawed in a 37° C. water bath and then stored on wet ice. DMSO and NADPH were sourced from Solarbio S&T Co Ltd.
2 mL of 10 mM DMSO stock solutions of test compound were added to 198 mL acetonitrile to produce […] concentration. 1325 mL of 20 mg/mL HLM were added to 22260 mL of phosphate buffer to produce the HLM mixture. An 8.334 mg/mL solution of NADPH was prepared in 100 mmol/L pH 7.4 phosphate buffer.
222.5 mL of the HLM mixture and 25 mL of the 10 mM NADPH were added into the incubation plates (1 mL 96 well deep well plate from Thermo). The mixture was vortexed for 10 seconds at 1000 rpm. The incubation plate was pre-warmed in a water bath at 37° C. for 8 minutes. 2.5 mL of the […] stocks of test compound was added to initiate the reaction. The mix was vortexed for 12 seconds at 1000 rpm and incubated at 37° C. The incubation mixture (250 mL) contained 1 mg/mL HLM, 1 mmol/L NADPH and […].
The reaction was quenched by transferring 20 mL of the incubation mixture at 0.5, 5, 10, 15, 20 and 30 minutes into the quenching plate containing 100 mL of cold stop solution (acetonitrile containing internal standards). The plate was vortexed at 800 rpm for 2 minutes.
The quenching plates were centrifuged for 20 minutes at 4000 rpm and 4° C. 40 mL of the supernatant was transferred into a 96-well analysis plate containing 160 mL of water. The analysis plate was shaken at 1000 rpm for 2 minutes and the samples analysed by LC-MS/MS.
as §6, with “time. The in vitro half-life (t1/2) was determined from the slope value by the equation: […]” for “time.”
Conversion of the in vitro half-life (min) into in vitro CLint (mL/min/mg proteins) was completed using the equation: […]

MOLM-13 cells = assay: Proliferation assay, MOLM-13 (CellTiter-Glo, 7 days); type: cell-based, human
Procedure: as §1, §2, §3, §4, §5

hERG = hERG (Homo sapiens (Human), UniProt Q12809); assay: hERG assay 1 (standard), SyncroPatch 384PE; type: cell-based; conditions: CHO cells, room temperature, up to 40 uM
Sequence of hERG (Q12809 whole entry): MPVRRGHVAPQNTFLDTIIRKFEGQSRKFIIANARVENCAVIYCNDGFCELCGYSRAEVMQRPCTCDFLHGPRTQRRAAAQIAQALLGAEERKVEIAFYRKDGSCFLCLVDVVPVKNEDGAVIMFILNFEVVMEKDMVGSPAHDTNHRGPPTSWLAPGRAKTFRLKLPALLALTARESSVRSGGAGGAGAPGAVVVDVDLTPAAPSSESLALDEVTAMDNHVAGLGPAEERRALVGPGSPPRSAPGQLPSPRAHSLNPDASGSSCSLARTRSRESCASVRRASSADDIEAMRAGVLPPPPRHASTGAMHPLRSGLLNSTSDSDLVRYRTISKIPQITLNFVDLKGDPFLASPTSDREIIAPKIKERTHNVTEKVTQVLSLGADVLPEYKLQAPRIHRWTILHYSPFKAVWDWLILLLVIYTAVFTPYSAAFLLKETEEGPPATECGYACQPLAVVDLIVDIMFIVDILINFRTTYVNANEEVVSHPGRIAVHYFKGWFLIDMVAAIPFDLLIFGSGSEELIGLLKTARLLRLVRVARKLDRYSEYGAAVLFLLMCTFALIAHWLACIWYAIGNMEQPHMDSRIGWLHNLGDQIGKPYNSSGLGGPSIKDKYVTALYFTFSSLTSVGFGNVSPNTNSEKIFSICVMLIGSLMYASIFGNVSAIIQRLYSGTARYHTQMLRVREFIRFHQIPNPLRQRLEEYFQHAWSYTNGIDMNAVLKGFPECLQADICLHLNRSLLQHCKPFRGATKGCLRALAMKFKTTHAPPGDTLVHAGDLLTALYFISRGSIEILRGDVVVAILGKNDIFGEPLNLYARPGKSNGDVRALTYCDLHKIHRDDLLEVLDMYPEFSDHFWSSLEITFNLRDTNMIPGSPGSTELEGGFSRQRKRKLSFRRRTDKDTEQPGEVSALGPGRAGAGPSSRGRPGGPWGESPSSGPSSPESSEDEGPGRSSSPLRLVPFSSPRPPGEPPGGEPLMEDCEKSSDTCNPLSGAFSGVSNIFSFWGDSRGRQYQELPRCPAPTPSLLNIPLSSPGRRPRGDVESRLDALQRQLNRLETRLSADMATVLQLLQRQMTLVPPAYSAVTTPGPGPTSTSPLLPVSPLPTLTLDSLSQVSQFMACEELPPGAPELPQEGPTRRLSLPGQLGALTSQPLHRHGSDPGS
Procedure: Experiments were performed on the SyncroPatch 384PE (Nanion Technologies) high throughput patch clamp platform at room temperature and used medium resistance chips with 4 patch holes per site. hERG-expressing Chinese hamster ovary K1 (CHO) cell line was used in assay-ready format and kept in liquid nitrogen until use. 2 vials of cells (10×10^6 cells per vial) were thawed and added to 20 ml Hepes-buffered saline solution (HBSS). HBSS comprised 140 mM NaCl, 4 mM KCl, 10 mM HEPES and 5 mM Glucose (pH 7.4). The internal patch clamp solution was KF 120 mM, KCl 20 mM, HEPES 10 mM, EGTA 10 mM, and 25 μM Escin (pH 7.2). After the initial sealing process was complete, a seal enhancer solution comprising HBSS supplemented with 10 mM CaCl2 and 1 mM MgCl2 was applied to cells. The external solution was then exchanged (4 times) for external patch clamp solution comprising NaCl 80 mM, KCl 4 mM, HEPES 10 mM, CaCl2 2 mM, MgCl2 1 mM, glucose 5 mM, and NMDG 60 mM (pH7.4). All compounds were dispensed from initial 10 mM DMSO stocks. An industry standard +60/−40 mV voltage protocol was applied every 15 seconds. Compounds were tested in a 6-point cumulative assay (final DMSO concentration 0.33%), with a concentration range of 139 nM to 40 uM. Data were analyzed in Genedata Screener®. IC50 values were determined by plotting % inhibition versus log compound concentration and using a one site dose response model. Only wells that passed acceptance criteria for this platform were used in this analysis (30 MegaOhm seal resistance, Z prime >0.4 and current size >0.2 nA).

[3] = human, microsomes, 1 µM, pH 7.4

Sequence of Menin protein (O00255 with tags, fused parts or gaps DEL460-519): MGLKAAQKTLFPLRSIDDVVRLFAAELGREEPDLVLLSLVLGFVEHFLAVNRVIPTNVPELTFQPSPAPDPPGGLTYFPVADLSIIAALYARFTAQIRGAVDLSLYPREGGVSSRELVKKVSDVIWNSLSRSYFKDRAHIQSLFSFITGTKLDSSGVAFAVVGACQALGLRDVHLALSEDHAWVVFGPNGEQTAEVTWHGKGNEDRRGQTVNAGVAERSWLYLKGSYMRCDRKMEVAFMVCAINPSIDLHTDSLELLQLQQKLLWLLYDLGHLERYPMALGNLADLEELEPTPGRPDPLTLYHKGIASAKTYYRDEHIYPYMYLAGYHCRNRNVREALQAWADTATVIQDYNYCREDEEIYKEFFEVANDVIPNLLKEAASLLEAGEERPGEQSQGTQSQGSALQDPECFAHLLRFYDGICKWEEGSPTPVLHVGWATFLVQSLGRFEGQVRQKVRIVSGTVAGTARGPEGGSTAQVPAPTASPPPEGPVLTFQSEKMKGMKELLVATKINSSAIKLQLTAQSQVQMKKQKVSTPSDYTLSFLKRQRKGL

For `CCN(C(=O)c1cc(F)ccc1-n1c(C)c(C(=O)[C@@H]2CCN(C(=O)[C@@H]3CCC4(CC4)N3)[C@@H](C)C2)c2ccncc21)C(C)C` (single isomer, unassigned) [Example 52-4, N-Ethyl-5-fluoro-N-isopropyl-2-(2-methyl-3-((2R*,4S*)-2-methyl-1-((S)-4-azaspiro[2.4]heptane-5-carbonyl)piperidine-4-carbonyl)-1H-pyrrolo[2,3-c]pyridin-1-yl)benzamide], the IC50 (Menin protein) was 2.47 µM, the IC50 (HEL cells) was > 10 µM and the “HH CLint” value [1] was 7.9 μl/min/1E6. The “HLM CLint” value ([2]; 1 mg/mL HLM, NADPH) was >300 µL/min/mg and the IC50 (MOLM-13 cells) was 1.09 µM.

For `[2H]C([2H])([2H])C([2H])(N(C(=O)c1cc(F)ccc1-n1c(C)c(C(=O)C2CCN(C(=O)[C@@H]3CCC(C)(C)N3)CC2)c2ccncc21)C([2H])(C([2H])([2H])[2H])C([2H])([2H])[2H])C([2H])([2H])[2H]` [Example 59, (S)-2-(3-(1-(5,5-Dimethylpyrrolidine-2-carbonyl)piperidine-4-carbonyl)-2-methyl-1H-pyrrolo[2,3-c]pyridin-1-yl)-5-fluoro-N,N-bis(propan-2-yl-d7)benzamide], the IC50 (Menin protein) was 0.102 µM, the IC50 (hERG) was > 40 µM and the IC50 (HEL cells; Homo sapiens, HEL, 168 h) was > 10 µM. The microsomal CLint at 1 µM ([2]; human, microsomes, pH 7.4, HLM CLint) was 59 µL/min/mg and the IC50 (MOLM-13 cells; Homo sapiens, MOLM-13, 168 h) was 0.094 µM.

With `Cc1c(C(=O)[C@@H]2CCN(C(=O)[C@H]3NC[C@@H]4C[C@@H]43)[C@@H](C)C2)c2ccncc2n1-c1ccc(F)cc1C(=O)N(CC(F)(F)F)C(C)C` (single isomer, unassigned) [Example 53-2, 2-(3-((2R*,4S*)-1-((1S,2S,5R)-3-Azabicyclo[3.1.0]hexane-2-carbonyl)-2-methylpiperidine-4-carbonyl)-2-methyl-1H-pyrrolo[2,3-c]pyridin-1-yl)-5-fluoro-N-isopropyl-N-(2,2,2-trifluoroethyl)benzamide] the IC50 (Menin protein) was 7.8 µM, the IC50 (HEL cells) was > 10 µM and the “HLM CLint” value [2, 3] was 77 µL/min/mg. For the same molecule, the IC50 (MOLM-13 cells) was 1.3 µM.

With `Cc1c(C(=O)C2CCN(C(=O)[C@H]3NC[C@@H]4C[C@@H]43)CC2)c2ccncc2n1-c1ccc(F)cc1C(=O)N(C(C)C)[C@H](C)C(F)(F)F` (single isomer, unassigned) [Example 57-2] the IC50 (Menin protein) was > 10 µM, the IC50 (hERG) was > 40 µM and the IC50 (HEL cells) was > 10 µM. For the same molecule, the “HLM CLint” value [2, 3] was 95 µL/min/mg and the IC50 (MOLM-13 cells) was > 10 µM.

For `CCN(C(=O)c1cc(F)ccc1-n1c(C)c(C(=O)[C@@H]2CCN(C(=O)[C@@H]3CCC4(CC4)N3)[C@@H](C)C2)c2ccncc21)C(C)C` (single isomer, unassigned) [Example 52-3, N-Ethyl-5-fluoro-N-isopropyl-2-(2-methyl-3-((2R*,4S*)-2-methyl-1-((S)-4-azaspiro[2.4]heptane-5-carbonyl)piperidine-4-carbonyl)-1H-pyrrolo[2,3-c]pyridin-1-yl)benzamide], the IC50 (Menin protein) was 5.95 µM, the IC50 (HEL cells) was > 10 µM and the “HH CLint” value [1] was 5.7 μl/min/1E6. The “HLM CLint” value ([2]; 1 mg/mL HLM, NADPH) was 210 µL/min/mg and the IC50 (MOLM-13 cells) was 1.47 µM.
